One series concerns HCT-116. Kind of series: Cytotoxicity against human HCT116 cells at 50 uM. The series is classed as functional, cell-based.
Another series relates to PC-12. Kind of series: Stimulation of NGF-induced neurite outgrowth in rat PC12 cells at 20 uM incubated for 48 hrs by phase contrast microscopy. The series is classed as functional, cell-based.
The nature of series [1]: Cytotoxicity against rat PC12 cells assessed as reduction in cell viability up to 50 uM by MTT assay. The series is classed as cell-based. The conditions noted are these: pc-12. A general note: Tetrazolium dyes change colour on reduction, which living cells bring about.
Series [2] can be described thus: Antioxidant activity assessed as DPPH radical scavenging activity at 50 uM. The format is physicochemical.
A short description of series [3]: Cytotoxicity against NF1 and p53 deficient mouse glioma cells assessed as growth inhibition at 2 ug/ml after 2 days. The series is classed as functional. The conditions noted are these: Glioma cell, 48 h.
The target of series [4] is T1, Peroxisome proliferator-activated receptor (Homo sapiens, UniProt P37231+Q07869+Q03181).
T1 sequence (P37231 whole entry): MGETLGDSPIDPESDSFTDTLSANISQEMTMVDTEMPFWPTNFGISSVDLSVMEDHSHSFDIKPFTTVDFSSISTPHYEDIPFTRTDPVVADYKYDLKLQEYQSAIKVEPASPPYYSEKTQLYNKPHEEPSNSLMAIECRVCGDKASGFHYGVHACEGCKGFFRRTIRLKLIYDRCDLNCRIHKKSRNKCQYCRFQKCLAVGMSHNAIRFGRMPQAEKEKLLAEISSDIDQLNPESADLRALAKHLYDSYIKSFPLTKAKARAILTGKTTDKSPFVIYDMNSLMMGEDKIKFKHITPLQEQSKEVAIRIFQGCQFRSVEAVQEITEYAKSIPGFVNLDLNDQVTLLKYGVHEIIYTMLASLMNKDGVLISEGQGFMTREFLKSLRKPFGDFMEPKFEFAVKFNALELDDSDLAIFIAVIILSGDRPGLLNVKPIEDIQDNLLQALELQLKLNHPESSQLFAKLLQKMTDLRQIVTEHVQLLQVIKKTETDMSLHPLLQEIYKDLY
T1 sequence (Q07869 whole entry): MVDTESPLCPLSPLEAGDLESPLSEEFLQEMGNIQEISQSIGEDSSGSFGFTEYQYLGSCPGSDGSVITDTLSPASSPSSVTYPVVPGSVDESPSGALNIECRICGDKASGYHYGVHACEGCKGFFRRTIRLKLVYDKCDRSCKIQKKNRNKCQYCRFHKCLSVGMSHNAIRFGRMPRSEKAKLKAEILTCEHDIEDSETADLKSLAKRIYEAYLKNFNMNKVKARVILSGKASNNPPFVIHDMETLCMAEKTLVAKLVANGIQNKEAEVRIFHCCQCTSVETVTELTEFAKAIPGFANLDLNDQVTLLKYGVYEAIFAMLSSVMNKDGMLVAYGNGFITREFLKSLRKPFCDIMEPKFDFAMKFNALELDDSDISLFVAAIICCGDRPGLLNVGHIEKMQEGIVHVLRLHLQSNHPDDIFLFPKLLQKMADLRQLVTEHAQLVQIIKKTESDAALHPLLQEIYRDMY
T1 sequence (Q03181 whole entry): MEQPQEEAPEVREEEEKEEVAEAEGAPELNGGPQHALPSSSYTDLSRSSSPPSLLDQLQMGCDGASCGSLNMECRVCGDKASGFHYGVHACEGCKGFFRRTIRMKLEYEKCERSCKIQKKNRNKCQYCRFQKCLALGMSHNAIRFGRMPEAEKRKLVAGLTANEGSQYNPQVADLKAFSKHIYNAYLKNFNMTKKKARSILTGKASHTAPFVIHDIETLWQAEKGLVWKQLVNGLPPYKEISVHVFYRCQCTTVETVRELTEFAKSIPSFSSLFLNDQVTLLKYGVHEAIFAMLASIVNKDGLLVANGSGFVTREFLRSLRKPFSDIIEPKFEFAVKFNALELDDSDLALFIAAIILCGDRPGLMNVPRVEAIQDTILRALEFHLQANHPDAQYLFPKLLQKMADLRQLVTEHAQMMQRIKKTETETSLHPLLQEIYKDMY
Kind of series: Activation of PPAR (unknown origin) transactivation expressed in human HepG2 cells assessed as increase in transcriptional activity after 20 hrs by PPRE-luciferase reporter gene assay. The format is cell-based. (In a reporter assay the amount or activity of a reporter protein is the signal.)

The nature of series [5]: Cytotoxicity against rat PC12 cells assessed as induction of morphological changes at 20 uM after 48 hrs by phase contrast microscopy in absence of NGF. The series is classed as cell-based. The conditions noted are these: pc-12, 48 h.

Among the data in ChEMBL document CHEMBL3751675, “Characterization of isobutylhydroxyamides with NGF-potentiating activity from Zanthoxylum bungeanum” (Bioorg Med Chem Lett, 2016) are Activity, inhibition and EC50 values, retold here.

Molecules are shown by their SMILES. Calls of active or inactive are those of the source. The calls are words filed in the database; no cut-off is given here.

Consider `CC(=O)/C=C/C=C/C(O)CC/C=C/C(=O)NCC(C)(C)O` (centres undefined), for which the result in the series on HCT-116 was inactive. The outcome in the series on PC-12 was Active. In addition, the Activity result is “Non-toxic” in series [1] and “Not Active” in series [2]. Moreover, in series [3], the inhibition at 2 µg/mL is 52%. The half-maximal effective concentration (EC50) in series [4] worked out at 19.1 µM.
Consider `C[C@H](O)[C@@H](O)/C=C/C=C/CC/C=C/C(=O)NCC(C)(C)O`, for which, in the series on HCT-116, the outcome was inactive. Moreover, the outcome in the series on PC-12 was Active. The values for the Activity result in series [5], in series [1] and in series [2] were “Non-toxic”, “Non-toxic” and “Not Active”, respectively. Also, the inhibition at 2 µg/mL in series [3] was found to be 56%. Besides, in series [4], the 50% effective concentration (EC50) came out at 12 µM.
For the compound `CC(O)/C=C/C=C/C(O)CC/C=C/C(=O)NCC(C)(C)O` (centres undefined), in the series with HCT-116, the result was inactive. In addition, the outcome with PC-12 was Active. In addition, the Activity entry in series [1] is “Non-toxic”; in series [2], “Not Active”. The inhibition at 2 µg/mL in series [3] was 41%.
On to `CC(O)/C=C/C=C/C(=O)CC/C=C/C(=O)NCC(C)(C)O` (centres undefined), for which the Activity entry in series [1] is “Non-toxic”.
As for `C[C@H](O)[C@H](O)/C=C/C=C\CC/C=C/C(=O)NCC(C)(C)O`, the result with HCT-116 was inactive. The outcome in the series on PC-12 was Active. Also, the values for the Activity result in series [5], in series [1] and in series [2] were “Non-toxic”, “Non-toxic” and “Not Active”, respectively. Further, the inhibition at 2 µg/mL in series [3] amounted to 31%.
For the compound `CCOC(/C=C/C=C/C(C)O)CC/C=C/C(=O)NCC(C)(C)O` (centres undefined), in series [1], the Activity entry is reported as “Non-toxic”.
For the compound `CCOC(C)/C=C/C=C/C(O)CC/C=C/C(=O)NCC(C)(C)O` (centres undefined), the result in the series with HCT-116 was inactive. Also, the result in the series on PC-12 was Active. Further, the Activity result in series [1] is “Non-toxic”; in series [2] it was “Not Active”.
As for `CC(O)/C=C/C=C/C(=O)C/C=C/C(=O)NCC(C)(C)O` (centres undefined), in the series on HCT-116, the outcome was inactive. Also, the outcome in the series on PC-12 was Active. Besides, the values for the Activity result in series [1] and in series [2] were “Non-toxic” and “Not Active”, respectively.

What is called inhibition is the percentage by which the read-out fell short of the control. The EC50 is the concentration needed to bring the measured effect to its halfway point.
